Assay results reported in US20100221763A1, “Specific Acceptors for Transferases to Saccharides and Method for Obtaining and Using Same” (Health Research, Inc, priority 2005, published 2010).

Legend:
[1] = biological target: T1, Rat recombinant α2,3(O)ST (Rattus norvegicus, UniProt Q11205); experiment: Sialyltransferase assay with cloned α2,3(O)ST; assay type: biochemical; conditions: for Sialyltransferase activity (%) Cloned α2,3(O)ST: Table I, [14C] sialylated product quantitated on Biogel P2 column; for acceptor efficiency for cloned α2,3(O)ST: 0.75 mM, compared to 3-O-MeGalβ1,4GlcNAcβ1,6(Galβ1,3)GalNAcα-O-Bn
T1 construct: purchased Calbiochem
T1 sequence (Q11205 1-350): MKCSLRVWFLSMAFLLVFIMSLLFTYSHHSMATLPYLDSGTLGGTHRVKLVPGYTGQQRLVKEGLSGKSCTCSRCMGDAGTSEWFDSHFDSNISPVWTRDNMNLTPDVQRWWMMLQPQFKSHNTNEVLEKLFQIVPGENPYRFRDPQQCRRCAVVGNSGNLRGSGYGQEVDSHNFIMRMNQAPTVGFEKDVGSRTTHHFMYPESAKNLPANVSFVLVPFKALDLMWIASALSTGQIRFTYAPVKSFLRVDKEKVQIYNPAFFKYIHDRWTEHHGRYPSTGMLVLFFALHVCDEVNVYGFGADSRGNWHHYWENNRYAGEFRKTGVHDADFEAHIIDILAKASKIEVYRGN

[2] = biological target: T2, Rat recombinant α2,6(N)ST (Rattus norvegicus, UniProt P13721); experiment: Sialyltransferase assay with cloned α2,6(N)ST; assay type: biochemical; conditions: Table I; acceptor 7.5 mM; sialylated product quantitated on Biogel P2 column
T2 construct: purchased Calbiochem
T2 sequence (P13721 1-403): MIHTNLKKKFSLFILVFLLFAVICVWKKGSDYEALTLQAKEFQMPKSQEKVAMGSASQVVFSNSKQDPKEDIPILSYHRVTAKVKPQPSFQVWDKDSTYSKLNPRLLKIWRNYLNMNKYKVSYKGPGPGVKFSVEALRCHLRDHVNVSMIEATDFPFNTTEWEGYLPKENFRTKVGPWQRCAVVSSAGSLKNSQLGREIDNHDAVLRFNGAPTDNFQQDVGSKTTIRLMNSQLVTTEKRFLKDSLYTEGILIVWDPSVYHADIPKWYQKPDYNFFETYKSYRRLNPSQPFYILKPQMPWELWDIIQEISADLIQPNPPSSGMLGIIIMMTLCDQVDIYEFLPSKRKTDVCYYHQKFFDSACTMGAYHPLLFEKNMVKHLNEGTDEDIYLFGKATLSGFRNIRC
Procedure: Rat recombinant α2,3(O)ST, α2,3(N)ST and α2,6(N)ST were purchased from Calbiochem and stored at either −20° C. or −70° C. as recommended by the supplier. […] 10 μl aliquots of the diluted enzymes were used in the assays run in duplicate.
The incubation mixtures run in duplicate contained 0.1M NaCacodylate buffer pH6.0, the acceptor (typically at 7.5 mM, or as indicated in some experiments), CMP-[9 ^3H] NeuAc (typically 0.2 μci; 20 μci/nmol or as indicated in some experiments) and the enzyme in a total volume of 20 μl. The control incubation mixtures contained everything except the acceptor. Incubation was carried out for 2 h at 37° C. The enzymatic transfer of [9-^3H] NeuAc to a typical acceptor was linear for 2 h and less than 30% CMP-[9-^3H] NeuAc was utilized. Chromatography, using either Dowex-1-Formate, Sep-Pak C18 or Biogel P2, was applied to separate radioactive product from un-reacted [9-^3H] NeuAc as described below.
The radioactive products from neutral allyl and methyl glycosides as well as non-glycosides were measured by fractionation on Dowex-1-Formate (Bio-Rad: AG-1X8; 200-400 mesh; format form) as follows: The incubation mixture was diluted with 1.0 ml water and passed through AG-1-formate column (1.0 ml bed volume in a Pasteur pipet which had been washed with 5 ml of 2M Formic acid followed by 10 ml water). The column was washed twice with 1.0 ml water after the entry of the sample and then eluted with 3.0 ml of 0.1M NaCl. The radioactivity present in water and 0.1M NaCl eluates were measured separately using 3a70 scintillation cocktail (Research Products International, Mount Prospect, Ill.) and a Beckman LS6500 scintillation counter. The CPM values were corrected by subtracting the blank CPM. Any radioactivity present in the water eluate (as noticed in the case of some methylglycosides) was added to the corresponding CPM value of 0.1M NaCl eluate. The radioactive products from sulfated and/or sialylated methylglycosides were also measured by the above procedure, only the elution of the AG-1-Formate column was continued further with 3.0 ml of 0.2M NaCl for achieving a complete elution of the radioactive product, a correction being made as before by subtracting the corresponding blank values.
The radioactive products from benzylglycosides and monosialylated benzylglycosides were measured by hydrophobic chromatography on Sep-Pak C18 cartridge (Waters, Milford, Mass.) and eluting the product with 3.0 ml methanol (30). The radioactivity was determined by liquid scintillation as above.
For such work, a Biogel P2 column (Fine Mesh; 1.0×116.0 cm) was used with 0.1M pyridine acetate pH5.4 as the eluent at room temperature. The effluent fractions were monitored for radioactivity and the first peak containing radioactivity was collected, lyophilized to dryness, dissolved in 200 μl of water and stored frozen at −20° C. for thin layer chromatography (TLC) and other experimentation.

[3] = biological target: T1, Rat recombinant α2,3(O)ST; experiment: Sialyltransferase assay with cloned α2,3(O)ST; assay type: biochemical; conditions: for Km / Vmax: CMP-NeuAc 150 μM, Lineweaver-Burke plot
[4] = tested on: LNCaP α2,3(O)ST; experiment: Sialyltransferase assay with LNCaP cell extract; assay type: biochemical, human
Outline: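 LNCaP Triton X-100 extract (5 mg protein/ml; 0.1M Tris-maleate pH6.3) incubated with acceptor (typically 7.5 mM) and CMP-[9-3H]NeuAc (typically 0.2 μCi) in 0.1M Na cacodylate pH6.0, 2 h at 37 °C, in duplicate. Radioactive product separated on Dowex-1-formate, Sep-Pak C18 or Biogel P2 and counted by scintillation; blank without acceptor subtracted.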

[5] = Table II, acceptor 0.75 mM, relative to Galβ1,3GalNAcα-O-Bn
[6] = Table II, acceptor 7.5 mM, relative to Galβ1,3GalNAcα-O-Bn

With `CC(=O)N[C@H]1[C@H](OC[C@H]2O[C@H](OCc3ccccc3)[C@H](NC(C)=O)[C@@H](O[C@@H]3O[C@H](CO)[C@H](O)[C@H](OS(=O)(=O)O)[C@H]3O)[C@H]2O)O[C@H](CO)[C@@H](O[C@@H]2O[C@H](CO)[C@H](O)[C@H](O)[C@H]2O)[C@@H]1O` [Galβ1,4GlcNAcβ1,6(3-O-SulfoGalβ1,3)GalNAcα-O-Bn] the “Sialyltransferase activity (%) Cloned α2,3(O)ST” value ([1]; acceptor 7.5 mM) was 33.1^e,7% and the “Sialyltransferase activity (%) Cloned α2,6(N)ST” value [2] was 127.4^e,18%.

In the case of `CC(=O)N[C@H]1[C@H](OC[C@H]2O[C@H](OCc3ccccc3)[C@H](NC(C)=O)[C@@H](O[C@@H]3O[C@H](C)[C@H](O)[C@H](O)[C@H]3O)[C@H]2O)O[C@H](CO)[C@@H](O)[C@@H]1O` [D-Fucβ1,3(GlcNAcβ1.6)GalNAcα-O-Bn], the “acceptor efficiency for cloned α2,3(O)ST” value [1] is reported as 100%, the Km [3] is reported as 280 µM and the Vmax [3] is reported as 1562 pmol/h.

`C=CCO[C@H]1O[C@H](CO[C@@H]2O[C@H](CO)[C@@H](O)[C@H](O)[C@H]2NC(C)=O)[C@H](O)[C@H](O[C@@H]2O[C@H](CO)[C@H](O)[C@H](O)[C@H]2O)[C@H]1NC(C)=O` [Galβ1,3(GlcNAcβ1,6)GalNAcα-O—Al] was tested, and the “Radioactivity incorporated (100% value) Cloned α2,3(O)ST” value ([1]; Table IV, compound 7.5 mM) was 29860 CPM, the “Sialyltransferase activity (%) Cloned α2,3(O)ST” value ([3]; Table I, acceptor 7.5 mM, 100% = 40560 CPM (3-O-MeGalβ1,4GlcNAcβ1,6(Galβ1,3)GalNAcα-O-Bn)) was 120.5^1% and the “Sialyltransferase activity (%) Cloned α2,3(O)ST” value ([3]; Table IV, compound 7.5 mM, relative to Galβ1,3(GlcNAcβ1,6)GalNAcα-O—Al) was 100.0%. The “Sialyltransferase activity (%) LNCaP α2,3(O)ST” value ([4]; Table I, acceptor 7.5 mM, 100% = 30930 CPM (3-O-MeGalβ1,4GlcNAcβ1,6(Galβ1,3)GalNAcα-O-Bn)) was 60.4%.

For `CC(=O)N[C@H]1[C@@H](OCc2ccccc2)O[C@H](CO)[C@H](O)[C@@H]1O[C@@H]1O[C@H](CO)[C@H](O)[C@H](O)[C@H]1O` [Galβ1,3GalNAcα-O-Bn], the “Radioactivity incorporated (100% value) Cloned α2,3(O)ST” value ([1]; Table II, acceptor 0.75 mM) was “(42550 CPM)”, the “Radioactivity incorporated (100% value) Cloned α2,3(O)ST” value ([1]; Table II, acceptor 7.5 mM) was “(43600 CPM)” and the “Sialyltransferase activity (%) Cloned α2,3(O)ST” value [3, 5] was 100.0^8%. For the same compound, the “Sialyltransferase activity (%) Cloned α2,3(O)ST” value [3, 6] was 100.0^8%, the “Radioactivity incorporated (100% value) LNCaP α2,3(O)ST” value ([4]; Table II, acceptor 0.75 mM) was “(30490 CPM)” and the “Sialyltransferase activity (%) LNCaP α2,3(O)ST” value [4, 5] was 100.0%. For the same compound, the “Radioactivity incorporated (100% value) LNCaP α2,3(O)ST” value ([4]; Table II, acceptor 7.5 mM) was “(30600 CPM)” and the “Sialyltransferase activity (%) LNCaP α2,3(O)ST” value [4, 6] was 100.0%.

`CC(=O)N[C@H]1[C@H](OC[C@H]2O[C@H](OCc3ccccc3)[C@H](NC(C)=O)[C@@H](O[C@@H]3O[C@H](CO)[C@H](O)[C@H](O)[C@H]3O)[C@H]2O)O[C@H](CO)[C@@H](O[C@@H]2O[C@H](CO)[C@H](O)[C@H](OS(=O)(=O)O)[C@H]2O)[C@@H]1O` [3-O-SulfoGalβ1,4GlcNAcβ1,6(Galβ1,3)GalNAcα-O-Bn] was tested, and the “Sialyltransferase activity (%) Cloned α2,3(O)ST” value ([1]; acceptor 7.5 mM) was 70.3^e,6% and the “Sialyltransferase activity (%) Cloned α2,3(O)ST” value ([1]; acceptor 7.5 mM, listed as 3-O-sulfoGalβ1,4GlcNAcβ1,6(Galβ1,3)GalNAcα-O-Bn) was 70.3%.

For `CC(=O)N[C@H]1[C@@H](OCc2ccccc2)O[C@H](CO)[C@H](O)[C@@H]1O[C@@H]1O[C@H](C)[C@H](O)[C@H](O)[C@H]1O` [D-Fucβ1,3GalNAcα-O-Bn], the “acceptor efficiency for cloned α2,3(O)ST” value [1] was 100%, the Km [3] was 210 µM and the Vmax [3] was 1250 pmol/h.
